Measured values taken from ChEMBL document CHEMBL4602644, “Synthesis of PJOV56, a new quinoxalinyl-hydrazone derivative able to induce autophagy and apoptosis in colorectal cancer cells, and related compounds” (Bioorg Med Chem Lett, 2020).
pIC50: −log10 of the molar value. The source made the active and inactive calls. The rule behind the calls is not given here.

Columns and labels:
[1] = system: HCT-116; assay: Cytotoxicity against human HCT116 cells assessed as reduction in cell viability measured after 24 hrs by MTT assay; type: functional, cell-based; settings: HCT-116, 24 h
[2] = system: HCT-116; assay: Induction of apoptosis in human HCT116 cells assessed as live cells at 1.5 uM measured after 48 hrs by annexinV-PE/7-AAD staining based flow cytometric analysis (reference value: 91.42 %); type: functional
[3] = system: HCT-116; assay: Disruption of membrane integrity in human HCT116 cells at 1.5 to 3 uM measured after 48 hrs by propidium iodide staining based flow cytometry; type: functional, cell-based
[4] = system: HCT-116; assay: Induction of morphological changes in human HCT116 cells assessed as discrete apoptotic cells at 6 uM measured after 48 hrs by propidium iodide staining based flow cytometry; type: functional, cell-based
[5] = system: HCT-116; assay: Induction of apoptosis in human HCT116 cells assessed as live cells at 3 uM measured after 48 hrs by annexinV-PE/7-AAD staining based flow cytometric analysis (reference value: 91.42 %); type: functional
[6] = system: HCT-116; assay: Cell cycle arrest in human HCT116 cells assessed as accumulation at G0/G1 phase at 1.5 uM measured after 48 hrs by propidium iodide staining based flow cytometry (reference value: 41.67 %); type: functional
[7] = system: L929; assay: Cytotoxicity against mouse L929 cells assessed as reduction in cell viability measured after 72 hrs by MTT assay; type: cell-based; settings: L929, 72 h
[8] = system: HCT-116; assay: Cell cycle arrest in human HCT116 cells assessed as accumulation at G0/G1 phase at 6 uM measured after 48 hrs by propidium iodide staining based flow cytometry (reference value: 41.67 %); type: functional
[9] = system: HCT-116; assay: Induction of DNA fragmentation in human HCT116 cells at 6 uM measured after 48 hrs by propidium iodide staining based flow cytometry relative to control; type: functional
[10] = system: HCT-116; assay: Cell cycle arrest in human HCT116 cells assessed as accumulation at G2/M phase at 1.5 uM measured after 48 hrs by propidium iodide staining based flow cytometry (reference value: 24.98 %); type: functional
[11] = system: HCT-116; assay: Induction of apoptosis in human HCT116 cells assessed as […] in cleaved caspase 7 expression at 3 to 6 uM measured after 48 hrs by Western blot analysis; type: functional, cell-based
[12] = system: K562; assay: Cytotoxicity against human K562 cells assessed as reduction in cell viability measured after 72 hrs by MTT assay; type: functional, cell-based; settings: K562, 72 h
[13] = system: HCT-116; assay: Induction of apoptosis in human HCT116 cells assessed as late apoptotic cells at 6 uM measured after 48 hrs by annexinV-PE/7-AAD staining based flow cytometric analysis (reference value: 0.18 %); type: functional
[14] = system: HCT-116; assay: Induction of autophagy in human HCT116 cells assessed as formation of autophagic vacuoles at 3 to 6 uM measured after 48 hrs by monodansylcadaverine staining based confocal microscopy; type: functional, cell-based
[15] = system: HCT-116; assay: Induction of morphological changes in human HCT116 cells assessed as increase in size of intracellular vesicles at 1.5 to 6 uM measured after 48 hrs by propidium iodide staining based flow cytometry; type: functional, cell-based
[16] = system: HCT-116; assay: Induction of autophagy in human HCT116 cells increase in LC3A/B-II level at 3 to 6 uM measured after 48 hrs by Western blot analysis; type: functional, cell-based
[17] = system: HCT-116; assay: Cell cycle arrest in human HCT116 cells assessed as accumulation at G2/M phase at 3 uM measured after 48 hrs by propidium iodide staining based flow cytometry (reference value: 24.98 %); type: functional
[18] = system: HCT-116; assay: Cell cycle arrest in human HCT116 cells assessed as accumulation at G2/M phase at 6 uM measured after 48 hrs by propidium iodide staining based flow cytometry (reference value: 24.98 %); type: functional
[19] = system: OVCAR-8; assay: Cytotoxicity against human OVCAR8 cells assessed as cell growth inhibition at 5 ug/ml measured after 72 hrs by MTT assay relative to control; type: functional; settings: OVCAR-8, 72 h, read-out: GI
[20] = system: HCT-116; assay: Induction of apoptosis in human HCT116 cells assessed as live cells at 6 uM measured after 48 hrs by annexinV-PE/7-AAD staining based flow cytometric analysis (reference value: 91.42 %); type: functional
[21] = system: HCT-116; assay: Cell cycle arrest in human HCT116 cells assessed as accumulation at G0/G1 phase at 3 uM measured after 48 hrs by propidium iodide staining based flow cytometry (reference value: 41.67 %); type: functional
[22] = system: HCT-116; assay: Induction of apoptosis in human HCT116 cells assessed as early apoptotic cells at 6 uM measured after 48 hrs by annexin-V staining based flow cytometry (reference value: 0.34 %); type: functional
[23] = system: MCF7; assay: Cytotoxicity against human MCF7 cells assessed as reduction in cell viability measured after 72 hrs by MTT assay; type: functional, cell-based; settings: MCF7, 72 h
[24] = system: HCT-116; assay: Induction of morphological changes in human HCT116 cells assessed as increase in cell size at 1.5 to 6 uM measured after 48 hrs by propidium iodide staining based flow cytometry; type: functional
[25] = system: HCT-116; assay: Cytotoxicity against human HCT116 cells assessed as reduction in cell viability measured after 72 hrs by MTT assay; type: functional, cell-based; settings: HCT-116, 72 h
[26] = system: HCT-116; assay: Induction of autophagy in human HCT116 cells assessed as formation of acidic vesicular organelles at 3 to 6 uM measured after 48 hrs by acridine orange staining based confocal microscopy; type: functional, cell-based
[27] = system: HCT-116; assay: Cytotoxicity against human HCT116 cells assessed as reduction in cell viability measured after 48 hrs by MTT assay; type: functional, cell-based; settings: HCT-116, 48 h
[28] = system: HCT-116; assay: Induction of apoptosis in human HCT116 cells assessed as late apoptotic cells at 1.5 uM measured after 48 hrs by annexinV-PE/7-AAD staining based flow cytometric analysis (reference value: 0.18 %); type: functional
[29] = system: HCT-116; assay: Induction of apoptosis in human HCT116 cells assessed as necrotic cells at 1.5 uM measured after 48 hrs by annexinV-PE/7-AAD staining based flow cytometric analysis (reference value: 0.16 %); type: functional
[30] = system: HCT-116; assay: Induction of apoptosis in human HCT116 cells assessed as late apoptotic cells at 3 uM measured after 48 hrs by annexinV-PE/7-AAD staining based flow cytometric analysis (reference value: 0.18 %); type: functional
[31] = system: HCT-116; assay: Cell cycle arrest in human HCT116 cells assessed as accumulation at S phase at 6 uM measured after 48 hrs by propidium iodide staining based flow cytometry (reference value: 33.29 %); type: functional
[32] = system: HCT-116; assay: Disruption of membrane integrity in human HCT116 cells assessed as increase in non-viable cells at 6 uM measured after 48 hrs by propidium iodide staining based flow cytometry relative to control; type: functional
[33] = system: HCT-116; assay: Disruption of membrane integrity in human HCT116 cells assessed as decrease in viable cells at 6 uM measured after 48 hrs by propidium iodide staining based flow cytometry relative to control; type: functional
[34] = system: HCT-116; assay: Cytotoxicity against human HCT116 cells assessed as cell growth inhibition at 5 ug/ml measured after 72 hrs by MTT assay relative to control; type: functional; settings: HCT-116, 72 h, read-out: GI
[35] = system: HCT-116; assay: Induction of autophagy in human HCT116 cells increase in Beclin 1 level at 3 uM measured after 48 hrs by Western blot analysis; type: functional, cell-based
[36] = system: SF-295; assay: Cytotoxicity against human SF295 cells assessed as reduction in cell viability measured after 72 hrs by MTT assay; type: functional, cell-based; settings: SF-295, 72 h

With `C(=N\Nc1cnc2ccccc2n1)/c1ccccn1` the pIC50 [1] was under 4.70, the Activity [2] was 89.63% and the Activity [3] was “inactive”. For the same compound, the Activity [4] was “Active”, the Activity [5] was 90.36% and the Activity [6] was 35.69%. For the same compound, the pIC50 [7] was 5.64, the Activity [8] was 64.85% and the Activity [9] was 3.89%. The Activity [10] was 29.99%, the Activity [11] was “Active” and the pIC50 [12] was 5.58. For the same compound, the Activity [13] was 17.9%, the Activity [14] was “Active” and the Activity [15] was “Active”. The Activity [16] was “Active”, the Activity [17] was 30.19% and the Activity [18] was 5.8%. For the same compound, the inhibition of growth at 5 µg/mL [19] was 97.8%, the Activity [20] was 66.2% and the Activity [21] was 14.45%. The Activity [22] was 25.6%, the pIC50 [23] was 5.15 and the Activity [24] was “Active”. For the same compound, the pIC50 [25] was 5.74, the Activity [26] was “Active” and the pIC50 [27] was 5.52. The Activity [28] was 1.14%, the Activity [29] was 0.63% and the Activity [30] was 2.55%. The Activity [31] was 29.41%, the Activity [32] was 31.36% and the Activity [33] was 68.31%. The inhibition of growth at 5 µg/mL [34] was 80.4%, the Activity [35] was “Active” and the pIC50 [36] was 5.41.
